From US20080070990A1, “USE OF RACTOPAMINE ENANTIOMERS” (STIRLING PRODUCTS LIMITED, priority 2006, published 2008)
pKi: −log10 of the molar value. Structures can show the parent of a compound that is named as a salt.

What was measured:
adrenergic beta-receptor = conditions: cited from earlier work
[1] = biological target: adrenergic B3 (h) receptor (Homo sapiens, UniProt P13945); test: Affinity (Ki) for adrenergic β-receptors, β3; assay type: binding
rats [2] = test: Neuropharmacological study in rats (Irwin test); assay type: in vivo; conditions: for drug-related stress, Irwin test: rats, oral
pigs = conditions: literature; cited from earlier work
mice [3] = test: Stress testing in mice, methodology of Aberg (U.S. Pat. No. 6,372,799); assay type: in vivo; conditions: preliminary results
mice [4] = test: Spontaneous motor activity studies in mice; assay type: in vivo; conditions: oral
livestock animals = test: Stress in livestock animals (applicant's findings); conditions: in vivo
animals = test: Cardiovascular parameters in animals; assay type: in vivo; conditions: concentrations corresponding to doses suitable for growth promotion
rats [5] = conditions: cited from earlier work
[6] = biological target: adrenergic β1(h) receptor (Homo sapiens, UniProt P08588); test: Affinity (Ki) for adrenergic β-receptors, β1; assay type: binding
adrenergic β1(h) receptor, sequence (P08588 whole entry): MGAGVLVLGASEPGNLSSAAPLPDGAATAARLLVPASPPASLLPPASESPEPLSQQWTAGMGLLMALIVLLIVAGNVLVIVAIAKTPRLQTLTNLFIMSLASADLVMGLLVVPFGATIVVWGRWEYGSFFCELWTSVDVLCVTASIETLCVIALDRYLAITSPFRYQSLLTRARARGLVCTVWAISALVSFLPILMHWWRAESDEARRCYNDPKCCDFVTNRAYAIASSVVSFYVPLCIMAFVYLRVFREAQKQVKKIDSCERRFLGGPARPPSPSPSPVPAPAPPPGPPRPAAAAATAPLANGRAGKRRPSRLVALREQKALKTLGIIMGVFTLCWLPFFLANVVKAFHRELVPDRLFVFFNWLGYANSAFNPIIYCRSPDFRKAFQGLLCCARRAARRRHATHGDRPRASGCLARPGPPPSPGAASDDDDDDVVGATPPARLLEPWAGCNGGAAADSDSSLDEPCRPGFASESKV

obese animals = test: Weight loss in obese animals; conditions: in vivo
[7] = system: adrenergic beta-receptors in adipose tissue; conditions: animals exposed to racemic ractopamine; cited from earlier work

adrenergic B3 (h) receptor, sequence (P13945 whole entry): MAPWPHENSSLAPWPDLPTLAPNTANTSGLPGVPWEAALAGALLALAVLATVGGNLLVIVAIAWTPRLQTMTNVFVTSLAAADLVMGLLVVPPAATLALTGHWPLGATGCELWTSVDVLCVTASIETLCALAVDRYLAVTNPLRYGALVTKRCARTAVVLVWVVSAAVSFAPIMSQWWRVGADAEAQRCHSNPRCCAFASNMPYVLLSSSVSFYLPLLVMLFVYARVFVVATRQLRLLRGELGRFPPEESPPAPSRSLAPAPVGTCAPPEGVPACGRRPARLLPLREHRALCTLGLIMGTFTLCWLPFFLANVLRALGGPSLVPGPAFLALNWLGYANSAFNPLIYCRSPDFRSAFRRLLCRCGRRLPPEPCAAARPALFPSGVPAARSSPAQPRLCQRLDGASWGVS

| SMILES | adrenergic beta-receptor stimulating activity (adrenergic beta-receptor) | affinity for beta-3 receptors (in words) [1] | stress in pigs / livestock animals (pigs) | drug-related stress, Irwin test (rats [2]) | drug-related stress, spontaneous motor activity (mice [4]) | other results |
| --- | --- | --- | --- | --- | --- | --- |
| CC(CCc1ccc(O)cc1)NCC(O)c1ccc(O)cc1 (single isomer, unassigned) [RS-enantiomer] | reduced beta-receptor activity when compared with RR-ractopamine |  |  |  |  |  |
| CC(C)(C)NC[C@H](O)c1ccc(O)c(CO)c1 [R-salbutamol] |  | negligible affinity for beta-3 receptors | does not induce stress in pigs |  |  | CNS-effects related to stress in laboratory animals (rats [2]; laboratory animals): not causing CNS-effects related to stress in laboratory animals |
| C[C@H](CCc1ccc(O)cc1)NC[C@H](O)c1ccc(O)cc1.Cl (racemic) [RR-ractopamine, RR 4-Hydroxy-a [[[3-(4-hydroxyphenyl)-1-methylpropyl]amino]methyl]benzenemethanol hydrochloride] |  |  |  | do not show signs of drug-related stress | no signs of drug-related stress | CNS-mediated stress, stress testing in mice (mice [3]): not causing stress; stress as side effect in livestock animals (livestock animals): does not cause this side effect in livestock animals; effects on cardiovascular parameters (animals): failed to reveal detrimental effects on cardiovascular parameters; potency rank among the four stereoisomers in vivo (rats [5]): most potent |
| C[C@@H](CCc1ccc(O)cc1)NC[C@@H](O)c1ccc(O)cc1 (single isomer, unassigned) [SS-enantiomer] | completely devoid of adrenergic beta-receptor stimulating activity |  |  |  |  |  |
| CC(CCc1ccc(O)cc1)NCC(O)c1ccc(O)cc1 (racemic) [Ractopamine, 4-hydroxy-a-[[[3-(4-hydroxyphenyl)-1-methylpropyl]amino]methyl]benzenemethanol hydrochloride] |  | negligible affinity for beta-3 receptors | cause stress in livestock animals | demonstrate stress | drug-related and CNS-mediated (“psychological”) stress | pKi [6]: 6.59; pKi [1]: 4.85; weight loss in obese animals (obese animals): cause weight loss in obese animals; reduction of concentration of adrenergic beta-receptors in adipose tissue [7]: 50% |
| C[C@H](CCc1ccc(O)cc1)NC[C@@H](O)c1ccc(O)cc1 (single isomer, unassigned) [SR-enantiomer] | reduced beta-receptor activity when compared with RR-ractopamine |  |  |  |  |  |
